Results: US9504702B2, “Methods of inhibition of protein fucosylation in vivo using fucose analogs” (Seattle Genetics, Inc., priority 2010, dated 2016)
Like-named read-outs stand apart in the source and are kept apart here.

What was measured:
[1] = test system: antibody core fucosylation (CHO DG44 cell line producing humanized IgG1 anti-CD70 antibody h1F6); experiment: Inhibition of antibody core fucosylation in CHO DG44 cell culture producing h1F6; assay type: cell-based; details: day 5, CHO DG44 h1F6; for Inhibition at 50 μM: 50 μM fucose analog; for Inhibition at 1 mM / inhibition at 1000 µM: 1 mM fucose analog
Method: (§1) Fucose analogs have been evaluated for their effect on antibody core fucosylation at concentrations of 50 μM and 1 mM generally as described in Published US Patent Application 2009-0317869. Briefly, the protocol was as follows: A CHO DG44 cell line producing a humanized IgG1 anti-CD70 monoclonal antibody, h1F6 (see International Patent Publication WO 06/113909) was cultured at 7.5×10^5 cells per mL in 2 mLs of CHO culture media at 37°, 5% CO2 and shaking at 100 RPM in a 6 well tissue culture plate. Media was supplemented with insulin like growth factor (IGF), penicillin, streptomycin and either 1 mM or 50 μM of the fucose analog. On day 5 post inoculation, the culture was centrifuged at 13000 RPM for 5 minutes to pellet the cells; antibodies were then purified from supernatant.
(§2) Antibody purification was performed by applying the conditioned media to protein A resin pre-equilibrated with 1× phosphate buffered saline (PBS), pH 7.4. After washing resin with 20 resin bed volumes of 1×PBS, antibodies were eluted with 5 resin bed volumes of Immunopure IgG elution buffer (Pierce Biotechnology, Rockford, Ill.). A 10% volume of 1M Tris pH 8.0 was added to neutralize the eluted fraction.

[2] = test system: antibodies (h1F6 produced by CHO DG44 cell line); experiment: Incorporation of fucose analogs into antibodies in CHO DG44 cell culture; assay type: cell-based
Method: as §1, §2
Certain other fucose analogs were tested for their ability to be incorporated into antibodies. These fucose analogs were tested at concentrations of 50 μM and 1 mM using the methodology as described above.

[3] = test system: LP-1, a human multiple myeloma cell line (IgG fucosylation); experiment: Fucosylation of LP-1-generated IgG, AOL dot blot; assay type: cell-based; details: for inhibition of IgG fucosylation in human cells (decrease in AOL signal, dot blot) / dot blot results (% fucose signal of control) / % of control fucosylated IgG value: 100 μM; for inhibition of IgG fucosylation in human cells (decrease in AOL signal, dot blot) / activity at 100 µM / % of control fucosylated IgG value: LP-1 cells; for activity at 100 µM: Homo sapiens, LP-1, 120 h, read-out: % of control fucosylated IgG value; for activity at 100 µM / % of control fucosylated IgG value: 5 days, AOL dot blot, multiple samples separated by semicolon; for dot blot results (% fucose signal of control): LP-1-generated IgG
Method: To further evaluate the activities of different fucose analogs, 48 different fucose analogs and other four glycosylation inhibitors were tested for their ability to affect the fucosylation the LP-1-generated IgG. LP-1 cells (250,000 cells/mL, 3 mL per compound in 6-well plates) were incubated with 100 μM of each fucose analog for 5 days at 37° C. with a humidified atmosphere of 5% CO2 in IgG-depleted tissue culture media (90% RPMI with 10% IgG-depleted heat inactivated FBS). The IgG was isolated as described above using only 0.5 mL of MabSelect™ protein A resin slurry and one spin cup per sample with elution in 400 μL of IgG elution buffer into 25 μL of 9 M Tris buffer, pH 9. The eluates were concentrated to 10-20 μL per sample and 2 μL of each of the concentrated eluates were dotted onto a nitrocellulose membrane and stained with Ponceau S to estimate and adjust the sample loading for AOL staining. From this estimation of total protein in each sample, approximately 0.5 μg of each sample was dotted onto the membrane, air-dried, and stained with Ponceau S. An image of this stained membrane was captured using an Alpha Innotech FlourChem® Q system. The membrane was then blocked with 5% Bovine Serum Albumin (BSA) in Tris Buffered Saline (TBS) for 1 hr, washed with TBST (TBS with […]) 3 times and then incubated with 5 μg/ml biotinylated-AOL for 1 hr. The membrane was washed again with TBST 3 times, followed by Streptavidin-HRP incubation for 30 min and final washes with TBST 3 times.

[4] = test system: LP-1 cells (1,6-fucosylation on the antibody); experiment: Fucosylation status of LP-1-generated IgG by reducing PLRP-MS; assay type: cell-based, human; details: 5 days; for PLRP/MS (inhibition or incorporation): in words
From the text: To further define the results of the AOL dot blot, samples of the IgGs produced by cells treated with the following fucose analogs (that gave moderate to strong decreases in the dot blot AOL signal) were isolated and examined by reducing PLRP-MS to verify the fucosylation status using the MW of the heavy chain: alkynyl fucose peracetate; 5-vinylfucose tetraaceate; 5-methylketofucose tetraacetate; 6-bromofucose tetraacetate; 6-fluorofucose tetraacetate; 5-ethylfucose tetraacetate; 5-epoxyfucose tetraacetate; 6′6-difluorofucose tetraacetate; 6-keto-6-ethyl fucose tetraacetate; and 2-fluorofucose peracetate.
40 mL samples of LP-1 cells (250,000 cells/mL) were treated with 100 μM of a fucose analog for 5 days as described above, and the IgGs were purified as described using protein A resin. The yields were estimated by UV spectroscopy assuming an extinction coefficient of 1.4 AU/(mg/mL). Seven of the ten compounds yielded enough IgG to perform the analysis (use of SGD-2067, SGD-1964, and SGD-2020 yielded <10 μg of IgG, likely due to toxicity of the analogs to the cells). The remaining IgGs were reduced with 10 mM DTT at 37° C. for 15 min and were separated on PLRP followed by MS analysis using a QTOF mass spectrometer. The resulting heavy chain peaks were examined and compared to the IgG generated by untreated cells.
The mass spectrometry signals were evaluated by comparing the peak height of the heavy chain versus heavy chain minus fucose and heavy chain minus fucose plus the mass of the fucose analog (which would arise if there was incorporation of the analog into the antibody carbohydrate).

[5] = concentration not given in the cell (tested at 50 μM and 1 mM)
[6] = 120 h, read-out: Inhibition at 50 μM

Compound	Inhibition at 50 μM [1] [%]	Inhibition at 1 mM [1]	% Incorporation ([2]; 50 uM)	% Incorporation ([2]; 1 mM)	inhibition of IgG fucosylation in human cells (decrease in AOL signal, dot blot) [3]	activity at 100 µM [3] [%]	dot blot results (% fucose signal of control) [3]	PLRP/MS (inhibition or incorporation) ([4]; 100 μM)	% of control fucosylated IgG value [3]	also measured
CC(=O)OC1O[C@@H]([C@]2(C)CO2)[C@@H](OC(C)=O)[C@@H](OC(C)=O)[C@@H]1OC(C)=O (stereo partly drawn) [5-methyloxiran-arabinose tetraacetate, (3S.4R.5S.6R)-6-((S)-2-methyloxiran-2-yl)-tetrahydro-2H-pyran-2,3,4,5-tetrayl tetraacetate]	~0	~35-40%	–	–	–	–	–	–	–	% Incorporation [2, 5]: ~60%
CC[C@@H]1OC(OC(C)=O)[C@@H](OC(C)=O)[C@H](OC(C)=O)[C@H]1OC(C)=O (stereo partly drawn) [SGD-1989, (3S,4R,5S,6S)-6-ethyl-tetrahydro-2H-pyran-2,3,4,5-tetrayl tetraacetate]	–	–	>90%	>90%	potentially strong inhibitors	11	11 % fucose signal of control	Fully incorporated	–	–
C=C(C)[C@@H]1OC(OC(C)=O)[C@@H](OC(C)=O)[C@H](OC(C)=O)[C@@H]1OC(C)=O (stereo partly drawn) [Isopropenyl peracetyl fucose, (3S,4R,5R,6S)-6-(prop-1-en-2-yl)-tetrahydro-2H-pyran-2,3,4,5-tetrayl tetraacetate]	–	–	>80% (1 mM and 50 uM)	>80% (1 mM and 50 uM)	–	–	–	–	–	–
6-allene fucose tetraacetate [SGD-2097]	23	34%	–	–	–	–	–	–	45 % of control	% Incorporation [2, 5]: ~30%
C=CC1OC(OC(C)=O)C(OC(C)=O)C(OC(C)=O)C1OC(C)=O (stereo not drawn) [SGD-1922, 5-ethylenylarabinose tetraacetate]	~0	~4%	–	–	–	–	2 % fucose signal of control	Full incorporator	2 % of control	–
CC(=O)OC1OC(CF)[C@@H](OC(C)=O)[C@@H](OC(C)=O)[C@@H]1OC(C)=O (stereo partly drawn) [SGD-1988, (3S,4R,5S)-6-(fluoromethyl)tetrahydro-2H-pyran-2,3,4,5-tetrayl tetraacetate]	–	–	>90%	>90%	potentially strong inhibitors	15	15 % fucose signal of control	Full incorporator	–	–
CC(=O)OC1OC(C(F)F)C(OC(C)=O)C(OC(C)=O)C1OC(C)=O (stereo not drawn) [SGD-2046, 6′6-difluoro fucose tetraacetate]	>80	>80%	–	–	potentially strong inhibitors	–	2 % fucose signal of control	Partial incorporator	2 % of control	PLRP/MS fucose inhibition ([4]; 100 μM, heavy chain peak heights): ~33%
CC(=O)OC1OC(CBr)[C@@H](OC(C)=O)[C@@H](OC(C)=O)[C@@H]1OC(C)=O (stereo partly drawn) [SGD-1969, (3S,4R,5S)-6-(bromomethyl)tetrahydro-2H-pyran-2,3,4,5-tetrayl tetraacetate]	–	–	~50%	20% at	potentially strong inhibitors	1	1 % fucose signal of control	Partial incorporator	–	Inhibition at 50 μM [1, 6]: 50%; inhibition at 1000 µM ([1]; 120 h): 80%; inhibition at 100 µM ([4]; Homo sapiens, 120 h, heavy chain peak heights, read-out: PLRP/MS fucose inhibition): 20%
CC(=O)O[C@@H]1[C@H](OC(C)=O)[C@H](C)OC(F)[C@H]1F (stereo partly drawn) [SGD-2082, 1,2-difuloro fucose diacetate]	>80	>80%	–	–	–	–	–	–	87 % of control	–
C#CC[C@@H]1OC(OC(C)=O)[C@@H](OC(C)=O)[C@H](OC(C)=O)[C@@H]1OC(C)=O (stereo partly drawn) [SGD-1987, (3S,4R,5R,6S)-6-(prop-2-ynyl)-tetrahydro-2H-pyran-2,3,4,5-tetrayl tetraacetate]	–	–	–	80% (1 mM)	–	38	–	–	–	Inhibition at 50 μM [1, 6]: ~10%; inhibition at 1000 µM ([1]; 120 h): 10 to 20%
1-methyl alkynyl fucose triacetate [SGD-2059]	68	>80%	–	–	–	–	–	–	89 % of control	–
CC[C@@H]1OC(O)[C@@H](O)[C@H](O)[C@@H]1O (stereo partly drawn) [5-ethyl fucose, (3S,4R,5S,6S)-6-ethyl-tetrahydro-2H-pyran-2,3,4,5-tetraol]	–	–	>80%	>80%	–	–	–	–	–	–
alkynyl fucose tetranicotinate [SGD-2047]	>80	>80%	–	–	–	–	–	–	50 % of control	–
